Measured values: publication PMC7269146, “Jingzhaotoxin-X, a gating modifier of Kv4.2 and Kv4.3 potassium channels purified from the venom of the Chinese tarantula Chilobrachys jingzhao” (The Journal of Venomous Animals and Toxins Including …, 2020)
Where a SMILES comes first, the peptide text is derived from it. Bridges are numbered along the chain shown (N, C = ends).

Molecular target: T1, Kv4.2 (Rattus norvegicus, UniProt Q63881)
T1 construct: expressed in transfected cells; host or cells: HEK293t
T1 sequence (Q63881 1-630): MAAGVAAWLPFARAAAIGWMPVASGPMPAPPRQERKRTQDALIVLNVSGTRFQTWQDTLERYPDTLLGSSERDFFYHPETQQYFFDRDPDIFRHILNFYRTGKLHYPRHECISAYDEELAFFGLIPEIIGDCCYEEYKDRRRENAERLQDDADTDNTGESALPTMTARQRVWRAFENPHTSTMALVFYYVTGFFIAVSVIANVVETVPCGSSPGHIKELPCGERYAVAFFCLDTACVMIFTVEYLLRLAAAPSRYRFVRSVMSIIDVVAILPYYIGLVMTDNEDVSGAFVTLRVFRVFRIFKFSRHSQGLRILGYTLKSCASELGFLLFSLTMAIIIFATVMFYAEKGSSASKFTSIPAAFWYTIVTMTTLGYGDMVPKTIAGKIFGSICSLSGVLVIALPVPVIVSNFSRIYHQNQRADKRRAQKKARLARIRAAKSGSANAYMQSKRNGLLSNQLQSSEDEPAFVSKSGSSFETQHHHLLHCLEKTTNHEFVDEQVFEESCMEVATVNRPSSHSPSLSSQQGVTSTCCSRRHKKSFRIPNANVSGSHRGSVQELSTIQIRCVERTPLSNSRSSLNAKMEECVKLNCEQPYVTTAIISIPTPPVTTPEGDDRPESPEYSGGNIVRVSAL
Assay: whole-cell patch-clamp, Kv4.2 in HEK293t cells, concentration-response and time course
Type: cell-based
Excerpt: Rat cDNA genes encoding Kv4.2 (Accession: NM_031730.2) and Kv4.3 (Accession: AB003587.1) were subcloned to vector pcDNA3.1. In addition, human cDNA genes encoding Nav1.7 (Accession: DQ857292.1) and Nav1.5 (Accession: AB158469.2) were subcloned to vectors pcDNA3.1-mod and pcDNA3.1, separately. Then, Kv4.2, Kv4.3, Nav1.5 and Nav1.7 constructs were transiently transfected into the human embryonic kidney 293t (HEK293t) cells using lipofectamine 2000 (Invitrogen, USA) in accordance with manufacturer protocols. Thereafter, HEK293 cells were inoculated within Dulbecco’s modified Eagle’s medium (DMEM) containing 10% fetal bovine serum (FBS) at 5% CO2 and 37°C. The Kv4.3 channel and the Kv4.2 counterpart were then transfected in the absence of β subunit. Subsequently, cells were incubated with a DNA-lipofectamine mixture (one reporter plasmid for green fluorescence protein and channel constructs) for 4-6 h, and were washed with the fresh medium.
An EPC-10 patch-clamp amplifier (HEKA, Germany) was employed to record the potassium currents at the configuration of whole-cell patch-clamp under an ambient temperature of 22-25°C. The resistance was 2.0-3.0 MΩ when the recording pipette contained a full volume of internal solution (supplemented with 140 mM KCl, 10 mM HEPES, 2.5 mM MgCl2, 5 mM ATP and 11 mM EGTA). KOH was utilized to adjust the pH to 7.2, while sucrose was employed to adjust the osmolarity to 310 mOsm/L. The culture medium was replaced with an external solution containing 150 mM NaCl, 2.5 mM CaCl2, 10 mM HEPES, 2 mM MgCl2, 5 mM KCl, and 10 mM D-glucose. Similarly, sucrose and NaOH were applied to adjust the osmolarity to 330 mOsm/L and pH to 7.4. […] The series resistance was maintained at about 5 MΩ, with 65-70% compensation. Finally, the leakage currents and linear capacitance were subtracted digitally according to the P/4 protocol. […]
On-rates were determined by fitting time course data with a single exponential decay function (2): y = Ae^-kx + C, where x is the time, A is the normalized current value before the application of toxin (usually 1.0), and C is the final normalized current value following the block by the toxin. The on-rate (τon) was determined from the inverse of the rate constant k.
Off-rates were determined by fitting time course data with a double exponential association function (3): y = A(1-e^-kx) + B(1-e^-fx) + C, where x is the time, A or B is the normalized current value after washout of the toxin (usually 1.0 if complete washout occurred), and C is the normalized current value before the washout of the toxin. The off-rate (τoff) was determined from the inverse of the rate constant k or f.

CC(C)C[C@@H]1NC(=O)[C@H](CCCCN)NC(=O)[C@H](Cc2ccc(O)cc2)NC(=O)[C@@H]2CSSC[C@@H]3NC(=O)[C@H](Cc4ccc(O)cc4)NC(=O)[C@H](Cc4ccccc4)NC(=O)CNC(=O)[C@H](C)NC(=O)[C@H](CSSC[C@H](NC(=O)[C@@H](N)CC(C)C)C(=O)N[C@@H](CO)C(=O)N[C@@H](CCCNC(=N)N)C(=O)N[C@@H](CCC(=O)O)C(=O)NCC(=O)N[C@@H](CCC(=O)O)C(=O)N[C@@H](Cc4ccccc4)C(=O)N2)NC(=O)[C@H](CSSC[C@@H](C(=O)N[C@@H](Cc2ccc(O)cc2)C(=O)N[C@@H](CCCNC(=N)N)C(=O)N[C@@H](CC(N)=O)C(=O)O)NC(=O)[C@H](Cc2c[nH]cn2)NC(=O)[C@H](CC(C)C)NC(=O)[C@H](C(C)C)NC(=O)[C@H](Cc2ccccc2)NC(=O)[C@H](C)NC(=O)[C@H](CCCCN)NC3=O)NC(=O)[C@H](CCCCN)NC(=O)[C@H](CCCNC(=N)N)NC1=O [JZTX-X, Jingzhaotoxin-X] (H-LCSREGEFCYKLRKCCAGFYCKAFVLHCYRN-OH; disulfide 2-16, 9-21, 15-28; N-terminus assumed)
inhibition of Kv4.2 at resting potential without pulses (-80 mV, no pulse during first ~100 s of treatment with 200 nM or 500 nM (order Kv4.2, Kv4.3), same as with pulses at 5 s intervals, n = 5): approximately 95% | IC50 (HEK293t cells, 1 nM-10 μM, 300-ms step to +20 mV from -80 mV, 22-25°C, pH 7.4, Hill equation fit, n = 7, read-out: IC50 for Kv4.2 channels): 68 nM | Hill Coefficient, Kv4.2 (HEK293t cells, +20 mV from -80 mV, n = 7): 0.91 | reversal of Kv4.2 inhibition after rinsing (in 3 min following rinsing, high JZTX-X dose, HEK293t cells, n = 6): > 95%
